Measured values taken from patent US9453034B2, “C2-azaspiro iminothiazine dioxides as BACE inhibitors, compositions, and their use” (Merck Sharp & Dohme Corp., priority 2013, dated 2016).

Legend:
[1] = target: soluble human BACE1 catalytic domain (Homo sapiens (Human), UniProt P56817); assay: BACE1 HTRF FRET Assay; type: biochemical; conditions: Ki calculated from IC50 using the Cheng-Prusoff equation; QSY7-APPswe-Eu substrate, pH 5.0
Excerpt: Reagents: Na^+-Acetate pH 5.0; 1% Brij-35; Glycerol; Dimethyl Sulfoxide (DMSO);
A homogeneous time-resolved FRET assay can be used to determine IC50 values for inhibitors of the soluble human BACE1 catalytic domain. This assay monitors the increase of 620 nm fluorescence that resulted from BACE1 cleavage of an APPswedish APP^swe mutant peptide FRET substrate (QSY7-[…]-Europium-amide). This substrate contains an N-terminal QSY7 moiety that serves as a quencher of the C-terminal Europium fluorophore (620 nm Em). […] Inhibition of BACE1 cleavage of the QSY7-APP^swe-Eu substrate by inhibitors is manifested as a suppression of 620 nm fluorescence.
Reactions are initiated by addition of 10 μl of 600 nM QSY7-APP^swe-Eu substrate (200 nM final) to give a final reaction volume of 30 μl in a 384 well Nunc HTRF plate. The reactions are incubated at 30° C. for 1.5 hours. The 620 nm fluorescence is then read on a Rubystar HTRF plate reader (BMG Labtechnologies) using a 50 millisecond delay followed by a 400 millisecond acquisition time window. Inhibitor IC50 values are derived from non-linear regression analysis of concentration response curves.

[2] = target: purified human autoBACE-2 (Homo sapiens (Human), UniProt Q9Y5Z0); assay: BACE-2 Assay (BACE-HTRF assay); type: biochemical; conditions: Ki calculated from IC50 using the Cheng-Prusoff equation; QSY7-EISEVNLDAEFC-Eu-amide substrate, pH 5.0; read-out: BACE2 Ki
Protocol: Inhibitor IC50s at purified human autoBACE-2 are determined in a time-resolved endpoint proteolysis assay that measures hydrolysis of the QSY7-EISEVNLDAEFC-Eu-amide FRET peptide substrate (BACE-HTRF assay). BACE-mediated hydrolysis of this peptide results in an increase in relative fluorescence (RFU) at 620 nm after excitation with 320 nm light. Inhibitor compounds, prepared at 3× the desired final concentration in 1×BACE assay buffer (20 mM sodium acetate pH 5.0, 10% glycerol, 0.1% Brij-35) supplemented with 7.5% DMSO are pre-incubated with an equal volume of autoBACE-2 enzyme diluted in 1×BACE assay buffer (final enzyme concentration 1 nM) in black 384-well NUNC plates for 30 minutes at 30° C. The assay is initiated by addition of an equal volume of the QSY7-EISEVNLDAEFC-Eu-amide substrate (200 nM final concentration, Km=8 μM […] for autoBACE-2) prepared in 1×BACE assay buffer supplemented with 7.5% DMSO and incubated for 90 minutes at 30° C. DMSO is present at 5% final concentration in the assay. Following laser excitation of sample wells at 320 nm, the fluorescence signal at 620 nm is collected for 400 ms following a 50 μs delay on a RUBYstar HTRF plate reader (BMG Labtechnologies). Raw RFU data is normalized to maximum (1.0 nM BACE/DMSO) and minimum (no enzyme/DMSO) RFU values. IC50s are determined by nonlinear regression analysis (sigmoidal dose response, variable slope) of percent inhibition data with minimum and maximum values set to 0 and 100 percent respectively. Similar IC50s are obtained when using raw RFU data. The Ki values are calculated from the IC50 using the Cheng-Prusoff equation.

soluble human BACE1 catalytic domain, sequence (P56817 75-416): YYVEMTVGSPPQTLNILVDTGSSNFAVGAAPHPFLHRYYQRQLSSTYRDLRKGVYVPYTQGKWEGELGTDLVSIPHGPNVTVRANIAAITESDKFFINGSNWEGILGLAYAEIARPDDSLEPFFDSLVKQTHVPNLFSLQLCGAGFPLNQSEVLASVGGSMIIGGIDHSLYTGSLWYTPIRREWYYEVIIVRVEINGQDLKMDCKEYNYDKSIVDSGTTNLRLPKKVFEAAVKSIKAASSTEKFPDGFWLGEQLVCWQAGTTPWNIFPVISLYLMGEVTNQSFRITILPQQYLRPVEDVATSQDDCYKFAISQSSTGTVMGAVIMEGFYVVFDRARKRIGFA
purified human autoBACE-2, sequence (Q9Y5Z0 63-473): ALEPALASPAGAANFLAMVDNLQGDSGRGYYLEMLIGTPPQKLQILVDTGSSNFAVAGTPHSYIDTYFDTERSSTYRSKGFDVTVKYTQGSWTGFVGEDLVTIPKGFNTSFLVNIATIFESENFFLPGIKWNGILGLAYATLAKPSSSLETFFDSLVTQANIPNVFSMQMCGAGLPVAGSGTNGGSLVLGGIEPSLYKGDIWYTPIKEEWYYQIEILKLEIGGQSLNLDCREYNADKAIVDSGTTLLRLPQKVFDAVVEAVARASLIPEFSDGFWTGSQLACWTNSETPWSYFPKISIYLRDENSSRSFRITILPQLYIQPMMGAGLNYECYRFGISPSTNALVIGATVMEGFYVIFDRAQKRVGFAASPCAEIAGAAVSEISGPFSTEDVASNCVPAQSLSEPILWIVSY

| Ki [1] [nM] | Ki [2] [nM] | SMILES |
| --- | --- | --- |
| 7.3 | 1.7 | CNC(=O)N1CC2(C1)C(=N)N[C@](C)(c1cc(NC(=O)c3ccc(OC)cn3)ccc1F)CS2(=O)=O [Example 39, (R)-7-(2-fluoro-5-(5-methoxypicolinamido)phenyl)-9-imino-N,7-dimethyl-5-thia-2,8-diazaspiro[3.5]nonane-2-carboxamide 5,5-dioxide] |
| 1.3 | 1 | Cc1cc(C#N)cnc1C(=O)Nc1ccc(F)c([C@]2(C)CS(=O)(=O)C3(CN(C)C3)C(=N)N2)c1 [Example 11, 5-cyano-N-{4-fluoro-3-[(7R)-9-imino-2,7-dimethyl-5,5-dioxido-5-thia-2,8-diazaspiro[3.5]non-7-yl]phenyl}-3-methylpyridine-2-carboxamide] |
| 4.9 | 1.5 | CN1CC2(C1)C(=N)N[C@](C)(c1cc(NC(=O)c3ccc(OCF)cn3)ccc1F)CS2(=O)=O [Example 8, N-{4-fluoro-3-[(7R)-9-imino-2,7-dimethyl-5,5-dioxido-5-thia-2,8-diazaspiro[3.5]non-7-yl]phenyl}-5-(fluoromethoxy) pyridine-2-carboxamide] |
| 7.7 | 0.6 | COc1ccc(C(=O)Nc2ccc(F)c([C@]3(C)CS(=O)(=O)C4(CN(Cc5ccccc5)C4)C(=N)N3)c2)nc1 [Example 40, (R)—N-(3-(2-benzyl-9-imino-7-methyl-5,5-dioxido-5-thia-2,8-diazaspiro[3.5]nonan-7-yl)-4-fluorophenyl)-5-methoxypicolinamide] |
| 6.1 | 1.2 | CN1CC2(C1)C(=N)N[C@](C)(c1cc(NC(=O)c3ccc(F)cn3)ccc1F)CS2(=O)=O [Example 2, 5-fluoro-N-{4-fluoro-3-[(7R)-9-imino-2,7-dimethyl-5,5-dioxido-5-thia-2,8-diazaspiro[3.5]non-7-yl]phenyl}pyridine-2-carboxamide] |
| 12 | 3 | CN1CCC2(CC1)C(=N)N[C@](C)(c1cc(NC(=O)c3ccc(Cl)cn3)ccc1F)CS2(=O)=O [Example 29, (R)-5-chloro-N-(4-fluoro-3-(5-imino-3,9-dimethyl-1,1-dioxido-1-thia-4,9-diazaspiro[5.5]undecan-3-yl)phenyl)picolinamide] |
| 4.1 | 1.8 | Cc1cc(C#N)cnc1C(=O)Nc1ccc(F)c([C@]2(C)CS(=O)(=O)C3(CNC3)C(=N)N2)c1 [Example 36e, 5-cyano-N-{4-fluoro-3-[(7R)-9-imino-7-methyl-5,5-dioxido-5-thia-2,8-diazaspiro[3.5]non-7-yl]phenyl}-3-methylpyridine-2-carboxamide] |
| 1.7 | 1.4 | CN1CC2(C1)C(=N)N[C@](C)(c1cc(NC(=O)c3ccc(C#N)cn3)ccc1F)CS2(=O)=O [Example 1, (R)-5-cyano-N-(4-fluoro-3-(9-imino-2,7-dimethyl-5,5-dioxido-5-thia-2,8-diazaspiro[3.5]nonan-7-yl)phenyl)picolinamide] |
| 19 | 29 | COc1cnc(C(=O)Nc2ccc(F)c([C@]3(C)CS(=O)(=O)C4(CCN(C)CC4)C(=N)N3)c2)cn1 [Example 28, N-{4-fluoro-3-[(3R)-5-imino-3,9-dimethyl-1,1-dioxido-1-thia-4,9-diazaspiro[5.5]undec-3-yl]phenyl}-5-methoxypyrazine-2-carboxamide] |
| 2.2 | 0.4 | CN1CC2(C1)C(=N)N[C@](C)(c1cc(NC(=O)c3ccc(Cl)cn3)ccc1F)CS2(=O)=O [Example 5, 5-chloro-N-{4-fluoro-3-[(7R)-9-imino-2,7-dimethyl-5,5-dioxido-5-thia-2,8-diazaspiro [3.5]non-7-yl]phenyl}pyridine-2-carboxamide] |
| 3.7 | 2.6 | C[C@@]1(c2cc(NC(=O)c3ccc(C#N)cn3)ccc2F)CS(=O)(=O)C2(CNC2)C(=N)N1 [Example 36c, (R)-5-cyano-N-(4-fluoro-3-(9-imino-7-methyl-5,5-dioxido-5-thia-2,8-diazaspiro[3.5]nonan-7-yl)phenyl)picolinamide] |
| 7.9 | 6.2 | COc1cnc(C(=O)Nc2ccc(F)c([C@]3(C)CS(=O)(=O)C4(CN(C)C4)C(=N)N3)c2)cn1 [Example 4, N-{4-fluoro-3-[(7R)-9-imino-2,7-dimethyl-5,5-dioxido-5-thia-2,8-diazaspiro[3.5]non-7-yl]phenyl}-5-methoxypyrazine-2-carboxamide] |
| 11 | 27 | CN1CCC2(CC1)C(=N)N[C@](C)(c1cc(NC(=O)c3ccc(OC(F)F)cn3)ccc1F)CS2(=O)=O [Example 31, 5-(difluoromethoxy)-N-{4-fluoro-3-[(3R)-5-imino-3,9-dimethyl-1,1-dioxido-1-thia-4,9-diazaspiro[5.5]undec-3-yl]phenyl}pyridine-2-carboxamide] |
| 1.4 | 0.32 | COc1ccc(C(=O)Nc2ccc(F)c([C@]3(C)CS(=O)(=O)C4(CN(c5ccc([N+](=O)[O-])cc5)C4)C(=N)N3)c2)nc1 [Example 42, (R)—N-(4-fluoro-3-(9-imino-7-methyl-2-(4-nitrophenyl)-5,5-dioxido-5-thia-2,8-diazaspiro[3.5]nonan-7-yl)phenyl)-5-methoxypicolinamide] |
| 35 | 24 | COc1ccc(C(=O)Nc2ccc(F)c([C@]3(C)CS(=O)(=O)C4(CCN(C)CC4)C(=N)N3)c2)nc1 [Example 27, N-{4-fluoro-3-[(3R)-5-imino-3,9-dimethyl-1,1-dioxido-1-thia-4,9-diazaspiro[5.5]undec-3-yl]phenyl}-5-methoxypyridine-2-carboxamide] |
